Read-outs that look alike come from different tables or passages of the source.
What was measured:
[1] = system: NIH/3T3 fibroblasts cell line; assay: Whole-cell patch clamp of transfected NIH/3T3 cells; assay type: cell-based, Mouse; conditions: stably transfected NIH/3T3 cells; for inactivation character of potassium current: FIG. 7 and FIG. 8; for potassium current amplitude: whole-cell voltage clamp, room temperature
Protocol: Mouse fibroblasts cell line (NIH/3T3, ATCC ACCESSION NO. CRL-6361):
(§1) Voltage clamp assay was used to test the expression and function of the over-expressed channels.
Selection was done using Neomycin sulfate (G418) antibiotic (Gibco Catalog No. 11811-031) which was added to the growth medium ([…]). Clones were isolated using cloning ring and cultured into 24 well plate (corning Catalog No. 3524). For expansion, confluent wells were transferred to six well plates and then to 100 mm culture dish (Corning Catalog No. 430167DMEM-complete+G418 10% FCS was thereafter replaced every 72 to 96 hours.
Total cell protein was extracted from the various clones using 300 μl cold RIPA buffer (with supplements; RIPA lysis buffer, 1× Santa Cruz Biotechnology, Catalog No. 24948) and screened by western blot analysis with rabbit anti-Kv1.3 antibody (CHEMICON, Catalog No. AB5178). Colonies that tested western blot positive were then analyzed by voltage clamp.
(§2) Patch clamp recordings—Voltage-clamp recordings were performed using the whole-cell patch clamp technique. All measurements were done at room temperature. Patch pipettes (2-4 MΩ) were prepared from glass capillary tubes (Jencons Catalog No. 687-055) using a double-stage puller (Narishige pp-830). Currents were recorded with an Axon Instruments amplifier (Axopatch 200), digitized by DigiData 1322A digitizer (Axon instruments). Data was analyzed using pCLAMP software (version 8.0). Bath solution for the whole-cell recordings contained (in mM): 140 NaCl, 3 KCl, 2 CaCl2, 2 MgCl2, 10 Glucose and 10 HEPES (pH 7.4). Pipette solution for the whole-cell recordings (in mM): 140 KCl, 10 Na2 ATP, 1 CaCl2, 1 MgCl2, 10 EGTA and 5 HEPES (pH 7.4). Currents were elicited by 200 ms pulses from holding potential of −80 mV to −90 mv and then to 110 mV in increments of 20 mV.

Human dermal fibroblasts = assay: Whole-cell patch clamp of transfected human dermal fibroblasts; assay type: cell-based; conditions: for potassium current amplitude: 7-20 days after nucleoporation, 12 cells per construct; for character of potassium current: FIG. 9 and FIG. 10
Text: as §1
The protocol is using Collagenase type 1 (Worthington Biochemical Corp., Lakewood, N.J., cat. LS004196, lot.X4J7447) for extractions of cells from a tissue. Primary cultures were generated by seeding in flasks with growth Medium: DMEM+HEPES (ADCF) with phenol red (HyClone part no SH3A1534.01, Lot no ANM20173 custom made for biogenics, L.T.D). Medium was supplemented with 10% FBS defined (HyClone; Cat no: SH30072.03; Lot no: APD21173); ITS+1 liquid media supplement (sigma # I-2521); Gentamycin 50 μg ml (Beit ha'emek; cat no#03-035-1) and Amphotericin B 2.5 μg ml (Beit ha'emek; Catalog No. 03-029-1).
Five days prior to transfection, cells were seeded in 150 cm^2 flasks. Medium was changed every 3 days. Cells reached 90% confluence in the day of the transfection.
For expression of the wt and mutation constructs in human dermal fibroblasts, Amaxa Nucleofector (Amaxa biosystem) and Human Dermal Fibroblast (NHDF) Nucleofector kit (Catalog No. VPD-1001) were used. Nucleofection was done according to the protocol of the manufacturer. Cells from passage 1-5 were used. The expression was characterized using fluorescent microscopy and the patch clamp technique. Seven days after nucleofection patch clamp analysis were performed.
as §2

[2] = wild type, from Marom et al. 1995; cited from earlier work
[3] = Transition rate of the channel from open to inactivation; conditions: H399W mutant

Molecule | inactivation character of potassium current [1] | potassium current amplitude [1] | potassium current amplitude (Human dermal fibroblasts) | character of potassium current (Human dermal fibroblasts) | transition rate from open to inactivation [2] | transition rate from open to inactivation [3]
wild type Kv1.3: wild type human Kv1.3 voltage-gated potassium channel (SEQ ID NO: 4, GenBank AAC31761, KCNA3) | slowly inactivated | 200-1500 pA | 600-2500 pA | typical potassium | 0.0074 | –
H399W: human Kv1.3 channel mutated to express tryptophan at position 399 instead of histidine (SEQ ID NO: 2), expressed from pIRES2-EGFP (protein, A recombinant polypeptide having the H399W mutation) MTVVPGDHLLEPEVADGGGAPPQGGCGGGGCDRYEPLPPSLPAAGEQDCCGERVVINISGLRFETQLKTLCQFPETLLGDPKRRMRYFDPLRNEYFFDRNRPSFDAILYYYQSGGRIRRPVNVPIDIFSEEIRFYQLGEEAMEKFREDEGFLREEERPLPRRDFQRQVWLLFEYPESSGPARGIAIVSVLVILISIVIFCLETLPEFRDEKDYPASTSQDSFEAAGNSTSGSRAGASSFSDPFFVVETLCIIWFSFELLVRFFACPSKATFSRNIMNLIDIVAIIPYFITLGTELAERQGNGQQAMSLAILRVIRLVRVFRIFKLSRHSKGLQILGQTLKASMRELGLLIFFLFIGVILFSSAVYFAEADDPTSGFSSIPDAFWWAVVTMTTVGNSYGDMWPVTIGGKIVGSLCAIAGVLTIALPVPVIVSNFNYFYHRETEGEEQSQYMHVGSCQHLSSSAEELRKARSNSTLSKSEYMVIEEGGMNHSAFPQTPFKTGNSTATCTTNN | fast inactivated | 150-1800 pA | 400-1200 pA | fast inactivated | – | 0.025

From patent US8101736B2, “Polynucleotides and polypeptide of human KV1.3, compositions comprising same and methods of using same” (GeneGrafts Ltd., priority 2005, dated 2012)
